Data reported in patent US10947216B2, “Amide compounds and method for making and using” (Rigel Pharmaceuticals, Inc., priority 2016, dated 2021).
pEC50: −log10 of the molar value. Counter-ions that a name gives are not always drawn.

These molecules were tested on IL-23 (p19/p40) (assay: IL23-p19 ELISA, dendritic cells (DC differentiated from human PBMC, IFNγ primed), LPS stimulated). Settings: Dendritic cell, human PBMC-derived dendritic cells, 1 h compound pre-incubation, LPS 1 μg/ml 18 hours, 10 pt.
Assay type: cell-based
Protocol: Compound Screening Using DC Cells
I. Differentiation of PBMC's to DC Cells:
After 2 hours, the media including floating cells was aspirated out carefully and 12 ml of fresh RPMI media (10% FBS) containing GMCSF (100 ng/ml) and IL4 (20 ng/ml) was added, and the flask was kept in a 37° C. incubator for 7 days.
After 3 days, fresh GMCSF (100 ng/ml) and IL4 (20 ng/ml) were added to the flask and the incubation continued. After 7 days, the fully differentiated cells were harvested by spinning down (1200 rpm/5 min) and aspirating the media. The cells were suspended in fresh RPMI media (10% FBS) containing 50 ng/ml IFNγ (1000 U/ml) and then plated (50K/well in 100 μl) onto a white clear bottom 96 well plate and left in a 37° C. incubator for 24 hours.
II. Addition of Compounds:
After 24 hours incubation, 100 μl of RPMI media was added containing 2× concentrated test compound per well to the above cell-culture media (final concentration becomes 1×) and the plates were pre-incubated for 1 hour at 37° C. before stimulating with LPS.
The mixture was shaken and incubated the plates at 37° C. for an additional 18 hours.
155 μl of the supernatant was harvested from each well carefully (without the tip touching the bottom of the well) and to the remaining 50 μl/well of the cell culture plate was added 50 μl of Cell Titer Glo reagent. The mixture was incubated for 1-2 minutes on a shaker and the plate was read for luminescence intensity to determine the compound cytotoxicity. The cell culture supernatant collected above was used to carry out IL23 ELISA (65 μl—Supernatant) and IL10 ELISA (90 μl—Supernatant) as described below.
Human IL-23 (p19/p40) ELISA Protocol (e-Biosciences)
To 10.5 ml PBS add 50 μl of anti-IL23 (p19) was added capture antibody (2.5 μg/ml). The mixture was mixed well and 100 μl of the coating solution was added to each well of the 96 well white plates from Pierce. The wells were covered and incubated overnight at 4° C.
The anti-IL23 (p19)-antibody-coated plates were washed 2× using TBST (use plate washer) and blocked using 200 μl of 0.5% Casein for 1.5-2 hours at room temperature with shaking.
Addition of Supernatant and Detection:
The plates were washed 2× using TBST and the supernatant was transferred (65 μl/well) to the above pre-blocked/IL23(p19)-antibody-coated 96 well plate, and incubated at room temperature for 1.5 hours with shaking.
The plates were washed 4× using TBST (plate washer) and 100 μl/well detection antibody solution prepared from 2 μl of biotin labeled anti-IL-12 (p40/p70) antibody in 11 ml 1% BSA/PBS solution (1-5000 dilution) was added. The plates were incubated for 1 hour with shaking at Room temperature.
Again, the plates were washed 4× with TBST and 100 μl of HRP labeled Streptavidin (R&D Systems) solution (10 μl/10 ml 1% BSA solution) was added, and the plates were incubated at room temperature for another 45 minutes with shaking.
After 45 minutes, the plates were washed with TBST 4× and 100 μl/well Super Signal ELISA Pico Chemiluminescent Substrate from Pierce (3.5 ml A+3.5 ml B+3.5 ml MQ water) was added. The plates were shaken for 1-2 minutes then read on a plate reader.
CC(C)Oc1cncc(-c2cccc(C(=O)Nc3cn(C4COC4)nc3-c3ccccn3)n2)c1 [Compound I-130, 5′-isopropoxy-N-(1-(oxetan-3-yl)-3-(pyridin-2-yl)-1H-pyrazol-4-yl)-[2,3′-bipyridine]-6-carboxamide] showed a pEC50 of 5.78.
Cn1cc(NC(=O)c2cccc(-c3cn[nH]c3)n2)c(-c2ccc(N3CCOCC3)cn2)n1 [Compound I-171, N-(1-methyl-3-(5-morpholinopyridin-2-yl)-1H-pyrazol-4-yl)-6-(1H-pyrazol-4-yl)picolinamide] was tested, and the pEC50 was 5.62.

Each molecule was assayed on IL-23p19 (assay: LPS Induced IL23p19 in THP-1 Cells (with IFNγ Primed) Assay). Settings: Homo sapiens, THP-1, THP-1 cells, IFNγ (50 ng/mL) primed, 1 hour compound pre-incubation, LPS 1 ug/mL 18 hours, 10 pt; read-out: IL23-p19 ELISA, THP1-IFNy, LPS, 10 pt EC50.
Assay type: cell-based, human
Protocol: LPS Induced IL23p19 in THP-1 Cells (with IFNγ Primed) Assay
Method THP-1 Cells Stimulation:
On day 1, 50K/well THP-1 cells were seeded and primed with IFNγ (50 ng/mL) in 384-well plates for about 18 hours in RPMI media with 10% FBS. […] 50 μL/well 2× compound was added to 50 μL/well THP-1 cells (with IFNγ primed) in duplicate in 384 well tissue culture plates. […] Day 3, after stimulation for 18 hours at 37° C., 5% CO2, the assay plate was centrifuged and 70 μL/well supernatant was harvested. IL-23p19 protein in 70 μL/well of supernatant was measured by sandwich ELISA, and 25 μl/well Cell Titer Glo reagent was added to the remaining cells to measure compound toxicity.
Human IL-23p19 Sandwich ELISA:
Maxisorp immuno ELISA plates were pre-coated with 25 μL/well of anti-IL-23p19 capture antibody (2.5 ug/mL) in PBS overnight at room temperature. After washing with 1×PBST, the plates were blocked using 100 μL/well of 1% BSA in PBS for 2 hours at room temperature. The plates were washed three times with 1×PBST and 70 μL/well supernatant were added. The plates were incubated at room temperature for 2 hours with shaking and washed three times with 1×PBST. 25 μL/well of biotin labeled anti-IL-12(p40/p70) detection antibody (100 ng/mL) in PBS with 1% BSA was added and the plates were incubated at room temperature for 2 hours with shaking. After washing three times with 1×PBST, 25 μL/well of streptavidin-HRP (1:200) in PBS with 1% BSA was added and the plates were incubated at room temperature for 20 minutes with shaking. The plates were washed three times with 1×PBST and 25 μL/well of Super Signal ELISA Pico Chemiluminescent Substrate were added. The plates were read with a luminometer, and the chemiluminescence values were entered into Athena (Rigel) for curve fitting, EC50 calculation, and database storage.
For Cn1cc(NC(=O)c2cccc(C3=CCNCC3)n2)c(-c2ccccn2)n1 [Compound I-62, N-(1-methyl-3-(pyridin-2-yl)-1H-pyrazol-4-yl)-1′,2′,3′,6′-tetrahydro-[2,4′-bipyridine]-6-carboxamide], the pEC50 was 4.55.
Work on Cn1cc(NC(=O)c2cccc(-c3cncc(C(F)(F)F)c3)n2)c(-c2ccccn2)n1 [Compound I-17, N-(1-methyl-3-(pyridin-2-yl)-1H-pyrazol-4-yl)-5′-(trifluoromethyl)-[2,3′-bipyridine]-6-carboxamide] yielded a pEC50 of 4.23.
For Cn1cc(NC(=O)c2cccc(-c3cncc(S(C)(=O)=O)c3)n2)c(-c2ccccn2)n1 [Compound I-39, N-(1-methyl-3-(pyridin-2-yl)-1H-pyrazol-4-yl)-5′-(methylsulfonyl)-[2,3′-bipyridine]-6-carboxamide], the pEC50 was 5.86.
Work on Cn1cc(NC(=O)c2cccc(-c3ccncc3)n2)c(-c2ccccn2)n1 [Compound I-160, N-(1-methyl-3-(pyridin-2-yl)-1H-pyrazol-4-yl)-[2,4′-bipyridine]-6-carboxamide 2,2,2-trifluoroacetate] yielded a pEC50 of 3.82.
Cc1cncc(-c2cccc(C(=O)Nc3cn(CCN4CCOCC4)nc3-c3ccccn3)n2)c1 [Compound I-84, 5′-methyl-N-(1-(2-morpholinoethyl)-3-(pyridin-2-yl)-1H-pyrazol-4-yl)-[2,3′-bipyridine]-6-carboxamide] gave a pEC50 of 6.35.
Cn1cc(NC(=O)c2cccc(C3=CCCN(C(=O)OC(C)(C)C)C3)n2)c(-c2ccccn2)n1 [Compound I-64, tert-butyl 6-((1-methyl-3-(pyridin-2-yl)-1H-pyrazol-4-yl)carbamoyl)-5′,6′-dihydro-[2,3′-bipyridine]-1′(2′H)-carboxylate] gave a pEC50 of 4.88.
Work on O=C(Nc1c[nH]nc1-c1ccccn1)c1cccc(-c2ccncc2)n1 [Compound I-106, N-(3-(pyridin-2-yl)-1H-pyrazol-4-yl)-[2,4′-bipyridine]-6-carboxamide formate] yielded a pEC50 of 5.31.
Molecule Cc1ccc(-c2cccc(C(=O)Nc3cn(C)nc3-c3ccccn3)n2)cc1 [Compound I-50, N-(1-methyl-3-(pyridin-2-yl)-1H-pyrazol-4-yl)-6-(p-tolyl)picolinamide] has a pEC50 of 5.26.
COc1cccc(-c2cccc(C(=O)Nc3cn(C)nc3-c3ccccn3)n2)c1 [Compound I-51, 6-(3-methoxyphenyl)-N-(1-methyl-3-(pyridin-2-yl)-1H-pyrazol-4-yl)picolinamide] gave a pEC50 of 4.23.
For O=C(Nc1cn(C2CCOCC2)nc1-c1ccccn1)c1cccc(-c2cn[nH]c2)n1 [Compound I-165, 6-(1H-pyrazol-4-yl)-N-(3-(pyridin-2-yl)-1-(tetrahydro-2H-pyran-4-yl)-1H-pyrazol-4-yl)picolinamide], the pEC50 was 5.81.
With COCCn1cc(NC(=O)c2cccc(-c3cncc(C)c3)n2)c(-c2ccccn2)n1 [Compound I-168, N-(1-(2-methoxyethyl)-3-(pyridin-2-yl)-1H-pyrazol-4-yl)-5′-methyl-[2,3′-bipyridine]-6-carboxamide] the pEC50 was 6.27.
With Cn1cc(NC(=O)c2cccc(C3CCNCC3)n2)c(-c2ccccn2)n1 [Compound I-63, N-(1-methyl-3-(pyridin-2-yl)-1H-pyrazol-4-yl)-6-(piperidin-4-yl)picolinamide] the pEC50 was 4.58.
With Cn1cc(NC(=O)c2nccc(Nc3cn(C)nc3-c3ccccn3)n2)c(-c2ccccn2)n1 [Compound I-118, N-(1-methyl-3-(pyridin-2-yl)-1H-pyrazol-4-yl)-4-((1-methyl-3-(pyridin-2-yl)-1H-pyrazol-4-yl)amino)pyrimidine-2-carboxamide] the pEC50 was 3.88.
Work on Cc1cncc(-c2cccc(C(=O)Nc3cn(C(CO)CO)nc3-c3ccccn3)n2)c1 [Compound I-126, N-(1-(1,3-dihydroxypropan-2-yl)-3-(pyridin-2-yl)-1H-pyrazol-4-yl)-5′-methyl-[2,3′-bipyridine]-6-carboxamide] yielded a pEC50 of 5.47.
Cn1cc(NC(=O)c2cccc(-c3ccc4cc[nH]c4c3)n2)c(-c2ccccn2)n1 [Compound I-47, 6-(1H-indol-6-yl)-N-(1-methyl-3-(pyridin-2-yl)-1H-pyrazol-4-yl)picolinamide] showed a pEC50 of 5.44.
Work on Cn1cc(NC(=O)c2cccc(-c3ccnc(C#N)c3)n2)c(-c2ccccn2)n1 [Compound I-42, 2′-cyano-N-(1-methyl-3-(pyridin-2-yl)-1H-pyrazol-4-yl)-[2,4′-bipyridine]-6-carboxamide] yielded a pEC50 of 4.59.
In the case of O=C(Nc1cn(C(CO)CO)nc1-c1ccccn1)c1cccc(-c2cccnc2)n1 [Compound I-125, N-(1-(1,3-dihydroxypropan-2-yl)-3-(pyridin-2-yl)-1H-pyrazol-4-yl)-[2,3′-bipyridine]-6-carboxamide], the pEC50 was 5.41.
With Cn1cc(NC(=O)c2cccc(-c3cncc(N4CCOCC4)c3)n2)c(-c2ccccn2)n1 [Compound I-37, N-(1-methyl-3-(pyridin-2-yl)-1H-pyrazol-4-yl)-5′-morpholino-[2,3′-bipyridine]-6-carboxamide] the pEC50 was 6.23.
Molecule Cc1cncc(-c2cccc(C(=O)Nc3cn(C)nc3N3CCCC3)n2)c1 [Compound I-75, 5′-methyl-N-(1-methyl-3-(pyrrolidin-1-yl)-1H-pyrazol-4-yl)-[2,3′-bipyridine]-6-carboxamide] has a pEC50 of 4.80.
COc1cc(-c2cccc(C(=O)Nc3cn(C)nc3-c3ccccn3)n2)ccn1 [Compound I-21, 2′-methoxy-N-(1-methyl-3-(pyridin-2-yl)-1H-pyrazol-4-yl)-[2,4′-bipyridine]-6-carboxamide] was tested, and the pEC50 was 3.40.
Molecule Cc1cc(-c2cccc(C(=O)Nc3cn(C)nc3-c3ccccn3)n2)ccn1 [Compound I-15, 2′-methyl-N-(1-methyl-3-(pyridin-2-yl)-1H-pyrazol-4-yl)-[2,4′-bipyridine]-6-carboxamide] has a pEC50 of 4.20.
Cn1cc(NC(=O)c2cccc(C3=CCN(C(=O)OC(C)(C)C)CC3)n2)c(-c2ccccn2)n1 [Compound I-61, tert-butyl 6-((1-methyl-3-(pyridin-2-yl)-1H-pyrazol-4-yl)carbamoyl)-3′,6′-dihydro-[2,4′-bipyridine]-1′(2′H)-carboxylate] was tested, and the pEC50 was 4.65.
